Measured values taken from US4476133A, “Triazolo-4,1-benzoxazepines having CNS activity” (Shionogi & Co., Ltd., priority 1980, dated 1984).

Key:
[1] = tested on: tonic convulsion; assay: antipentylenetetrazole test indicating anticonvulsive activities; type: in vivo; conditions: Mus musculus; oral, 60 min before s.c. pentylenetetrazole 125 mg/kg; mortality observed for 2 h; DS male mice
Experimental: In determination of the antipentylenetetrazole activity, four test lots consisting of 4×10 DS male mice were employed. Within 15 minutes after single subcutaneous injection of 125 mg/kg (body weight of mouse) of pentylenetetrazole (a kind of convulsion reagent given as an aqueous solution), the mice were attacked by tonic convulsion which killed them. Test compound was orally administered 60 minutes before said s.c. injection. Observation was made for two hours postinjection of pentylenetetrazole. Anticonvulsant activity was determined in mortality percentage between 100% (all the mice dead) and 0% (all the mice alive). Test results are shown by preventive ED50 value (Effective Doses in mg/kg, a theoretical level of 50% alive and 50% dead)[Goodman, et al.: J. Pharmacol., 108, 168 (1953)].

[2] = acute toxicity; conditions: mouse, in vivo; oral; DS infant male mice, 20 to 23 g; observed 72 hours; Bliss method
Experimental: Test compounds were orally administered to DS infant male mice with four toxic doses. For each dose 10 mice were used, their body weights ranging from 20 to 23 grams. […] Mortality was calculated by the Bliss method [Bliss: Ann. Appln. Biol., 23, 134-307 (1935); Quant. J. Pharmacol., 11, 192 (1938)].

[3] = molecular target: benzodiazepine receptors; assay: radio receptor assay using receptors extracted from brains of rats and 3H-diazepam; type: binding; conditions: receptors extracted from rat brains

| Compound | ED50 [1] | LD50 at 72 h [2] | Ki [3] |
| --- | --- | --- | --- |
| CN1C(=O)CN=C(c2ccccc2)c2cc(Cl)ccc21 [Diazepam, reference compound] | 1.2 mg/kg |  |  |
| CCOCc1nnc2n1-c1ccc(Cl)cc1C(c1ccccc1Cl)OC2 (stereo not drawn) [Compound 7] | 2.13 mg/kg | > 1000 mg/kg |  |
| CCCOCc1nnc2n1-c1ccc(Cl)cc1C(c1ccccc1Cl)OC2 (stereo not drawn) [Compound 11] | 3.09 mg/kg | > 1000 mg/kg |  |
| Cc1nnc2n1-c1ccc(Cl)cc1C(c1ccccc1C(F)(F)F)OC2 (stereo not drawn) [Compound 15] | 1.41 mg/kg | > 1000 mg/kg |  |
| CC(=O)OCCc1nnc2n1-c1ccc(Cl)cc1C(c1ccccc1Cl)OC2C (stereo not drawn) [Compound 14] | 1.67 mg/kg | > 1000 mg/kg |  |
| OCc1nnc2n1-c1ccc(Cl)cc1C(c1ccccc1Cl)OC2 (stereo not drawn) [1-Hydroxymethyl-6-(2-chlorophenyl)-8-chloro-4H,6H-(1,2,4)triazolo[4,3-a][4,1]benzoxazepine] |  |  | 3.45 nM |
| Clc1ccc2c(c1)C(c1ccccc1Cl)OCc1nncn1-2 (stereo not drawn) [Compound 1] | 1.25 mg/kg | > 1000 mg/kg |  |
| OCc1nnc2n1-c1ccc(Cl)cc1C(c1ccccc1Cl)OC2 (stereo not drawn) [Compound 6] | 3.25 mg/kg | > 1000 mg/kg |  |
| Cn1nc2n(c1=O)-c1ccc(Cl)cc1C(c1ccccc1Cl)OC2 (stereo not drawn) [Compound 12] | 3.46 mg/kg | > 1000 mg/kg |  |
| CC(C)OCc1nnc2n1-c1ccc(Cl)cc1C(c1ccccc1Cl)OC2 (stereo not drawn) [Compound 10] | 2.42 mg/kg | > 1000 mg/kg |  |
| Clc1ccc2c(c1)C(c1ccccc1Cl)OCc1nnc(CN3CCOCC3)n1-2 (stereo not drawn) [Compound 5] | 3.81 mg/kg | > 1000 mg/kg |  |
| Clc1ccc2c(c1)C(c1ccccc1Cl)OCc1nnc(CN3CCCC3)n1-2 (stereo not drawn) [Compound 9] | 4.63 mg/kg | > 1000 mg/kg |  |
| COCc1nnc2n1-c1ccc(Cl)cc1C(c1ccccc1Cl)OC2 (stereo not drawn) [Compound 3] | 2.38 mg/kg | > 1000 mg/kg |  |
| CN1CCN=C(c2ccccc2)c2cc(Cl)ccc21 [Medazepam, reference compound] |  | > 1000 mg/kg |  |
| CC(=O)OCc1nnc2n1-c1ccc(Cl)cc1C(c1ccccc1Cl)OC2 (stereo not drawn) [Compound 4] | 1.2 mg/kg | > 1000 mg/kg |  |
| CN(C)Cc1nnc2n1-c1ccc(Cl)cc1C(c1ccccc1Cl)OC2 (stereo not drawn) [Compound 8] | 1.02 mg/kg | > 1000 mg/kg |  |
| Clc1ccc2c(c1)C(c1ccccc1Cl)OCc1nnc(N3CCOCC3)n1-2 (stereo not drawn) [Compound 2] | 4.26 mg/kg | > 1000 mg/kg |  |
| Cc1nnc2n1-c1ccc(Cl)cc1C(c1ccccc1Cl)OC2C (stereo not drawn) [Compound 13] | 1.19 mg/kg | > 1000 mg/kg |  |
